This test concerns the target T1, AhR (Homo sapiens, UniProt P35869).
T1 sequence (P35869 11-848): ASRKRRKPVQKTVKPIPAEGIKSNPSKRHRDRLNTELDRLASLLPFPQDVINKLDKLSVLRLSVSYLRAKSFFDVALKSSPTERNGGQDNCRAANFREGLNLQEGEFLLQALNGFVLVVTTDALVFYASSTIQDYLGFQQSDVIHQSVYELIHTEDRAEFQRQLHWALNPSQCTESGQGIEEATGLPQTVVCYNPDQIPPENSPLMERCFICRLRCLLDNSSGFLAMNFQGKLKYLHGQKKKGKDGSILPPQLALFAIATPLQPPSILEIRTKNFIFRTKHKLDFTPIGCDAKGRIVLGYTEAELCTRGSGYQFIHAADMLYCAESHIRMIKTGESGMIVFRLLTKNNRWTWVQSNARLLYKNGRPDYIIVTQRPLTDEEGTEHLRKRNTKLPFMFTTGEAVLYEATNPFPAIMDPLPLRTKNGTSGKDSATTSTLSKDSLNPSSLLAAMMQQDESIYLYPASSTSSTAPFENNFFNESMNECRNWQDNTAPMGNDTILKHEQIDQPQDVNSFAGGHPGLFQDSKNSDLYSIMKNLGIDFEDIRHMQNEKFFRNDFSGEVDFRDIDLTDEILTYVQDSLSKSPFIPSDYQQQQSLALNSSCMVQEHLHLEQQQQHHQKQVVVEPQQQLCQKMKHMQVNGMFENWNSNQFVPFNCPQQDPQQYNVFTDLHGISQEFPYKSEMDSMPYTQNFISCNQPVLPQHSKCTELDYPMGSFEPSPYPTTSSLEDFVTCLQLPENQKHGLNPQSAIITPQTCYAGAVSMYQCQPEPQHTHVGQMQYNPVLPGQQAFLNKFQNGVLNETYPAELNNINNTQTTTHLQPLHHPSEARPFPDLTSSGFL
As to the kind of experiment: In Vitro Assay 1: XRE-luciferase reporter assay, antagonism in human cell line (HepG2). The note with it: Assay 1: AhR-Luc Human Antagonism (IC50, nM), values marked *: kynurenine 50 μM, 6 hours. Background: In a reporter assay the amount or activity of a reporter protein is the signal.

In general, IC50 refers to the concentration needed to halve the response being measured.

For `O=C1CCC(CNc2cc(-c3ccc(Cl)cc3)nc(-c3cccnc3)n2)N1` (stereo not drawn) [Example 200, 5-(((6-(4-chlorophenyl)-2-(pyridin-3-yl)pyrimidin-4-yl)amino)methyl)pyrrolidin-2-one], the half-maximal inhibitory concentration (IC50) is > 1000 nM. Consider `CO[C@H]1CN(C)C[C@@H]1Nc1cc(-c2ccc(Cl)cc2)nc(-c2cccnc2)n1` [Example 202, 6-(4-chlorophenyl)-N-((3S,4S)-4-methoxy-1-methylpyrrolidin-3-yl)-2-(pyridin-3-yl)pyrimidin-4-amine], for which the IC50 was > 1000 nM. For `Clc1ccc(-c2cc(N[C@@H]3CCCNC3)nc(-c3cccnc3)n2)cc1` [Example 203, (R)-6-(4-chlorophenyl)-N-(piperidin-3-yl)-2-(pyridin-3-yl)pyrimidin-4-amine], the IC50 lay within 100 to 1000 nM.

Take `Clc1ccc(-c2cc(NC3CCCNC3)nc(-c3cccnc3)n2)cc1` (stereo not drawn) [Example 204, 6-(4-chlorophenyl)-N-(piperidin-3-yl)-2-(pyridin-3-yl)pyrimidin-4-amine]: the IC50 is > 1000 nM. Under `F[C@@H]1CNCC[C@H]1Nc1cc(-c2ccc(Cl)cc2)nc(-c2cccnc2)n1` [Example 205, 6-(4-chlorophenyl)-N-((3R,4R)-3-fluoropiperidin-4-yl)-2-(pyridin-3-yl)pyrimidin-4-amine] stands > 1000 nM; under `Clc1ccc(-c2cc(NC[C@H]3CCNC3)nc(-c3cccnc3)n2)cc1` [Example 206, (S)-6-(4-chlorophenyl)-2-(pyridin-3-yl)-N-(pyrrolidin-3-ylmethyl)pyrimidin-4-amine], > 1000 nM.

`COC(=O)[C@H]1C[C@@H](Nc2cc(-c3ccc(Cl)cc3)nc(-c3cccnc3)n2)CN1` [Example 207, methyl (2R,4R)-4-((6-(4-chlorophenyl)-2-(pyridin-3-yl)pyrimidin-4-yl)amino)pyrrolidine-2-carboxylate]: the half-maximal inhibitory concentration (IC50) was > 1000 nM. With `O=C(O)[C@H]1C[C@H](Nc2cc(-c3ccc(Cl)cc3)nc(-c3cccnc3)n2)CN1` [Example 208, (2R,4S)-4-((6-(4-chlorophenyl)-2-(pyridin-3-yl)pyrimidin-4-yl)amino)pyrrolidine-2-carboxylic acid] the figure was > 1000 nM. With `ClC[C@@H]1CCN(c2cc(-c3ccc(Cl)cc3)nc(-c3cccnc3)n2)C1` [Example 210, (R)-4-(3-(chloromethyl)pyrrolidin-1-yl)-6-(4-chlorophenyl)-2-(pyridin-3-yl)pyrimidine], the IC50 is 10 to 100 nM.

As for `ClC[C@H]1CCN(c2cc(-c3ccc(Cl)cc3)nc(-c3cccnc3)n2)C1` [Example 211, (S)-4-(3-(chloromethyl)pyrrolidin-1-yl)-6-(4-chlorophenyl)-2-(pyridin-3-yl)pyrimidine], the 50% inhibitory concentration (IC50) lay in the range of 10 to 100 nM. Compound `N#CC1CCN(c2cc(-c3ccc(Cl)cc3)nc(-c3cccnc3)n2)C1` (stereo not drawn) [Example 212, 1-(6-(4-chlorophenyl)-2-(pyridin-3-yl)pyrimidin-4-yl)pyrrolidine-3-carbonitrile] displayed an IC50 of 10 to 100 nM. With `CC[C@@H](O)CNc1cc(-c2ccc(Cl)cc2)nc(-c2cccnc2)n1` [Example 213, (R)-1-((6-(4-chlorophenyl)-2-(pyridin-3-yl)pyrimidin-4-yl)amino)butan-2-ol] the figure was 10 to 100 nM.

`O[C@@H]1CC[C@H](Nc2cc(-c3ccc(Cl)cc3)nc(-c3cccnc3)n2)C1` [Example 214, (1R,3S)-3-((6-(4-chlorophenyl)-2-(pyridin-3-yl)pyrimidin-4-yl)amino)cyclopentan-1-ol] displayed a concentration for half-maximal inhibition (IC50) of 10 to 100 nM.

In the case of `COCCN1CCN(c2cc(-c3ccc(Cl)cc3)nc(-c3cccnc3)n2)CC1` [Example 218, 4-(4-chlorophenyl)-6-(4-(2-methoxyethyl)piperazin-1-yl)-2-(pyridin-3-yl)pyrimidine], the IC50 was < 10 nM.

Take `O[C@@H]1CCN(c2cc(-c3ccc(Cl)cc3)nc(-c3cccnc3)n2)C[C@@H]1F` [Example 219, (3S,4R)-1-(6-(4-chlorophenyl)-2-(pyridin-3-yl)pyrimidin-4-yl)-3-fluoropiperidin-4-ol]: the IC50 is < 10 nM.

(Values after US20230150970A1, “AMINOPYRIMIDINE DERIVATIVES AND THEIR USE AS ARYL HYDROCARBON RECEPTOR MODULATORS” (DONG-A ST CO., LTD., priority 2020, published 2023).)
